Results taken from US12473289B2, “Heterocyclic compounds as delta-5 desaturase inhibitors and methods of use” (Amgen Inc., priority 2019, dated 2025).

How the values were obtained:
[1] = target: Delta-5-Desaturase (D5D) (Homo sapiens (Human), UniProt O60427); assay: In vitro measurement of Delta-5-Desaturase inhibitory activity using DGLA-CoA and Arachidonyl-CoA mass spectrometric assays; format: biochemical; settings: membrane preparations of D5D-overexpressing HEK293 6E cells; averaged over at least two independent runs
In short: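 DGLA-CoA and arachidonyl-CoA were read by RapidFire SPE triple-quad MS (negative mode, MRM) after a 1 h ambient-temperature reaction quenched with acetonitrile. Enzyme was D5D-overexpressing HEK293 6E membranes at 10 μg/mL final; substrate solution held 0.01 mM DGLA plus NADH, ATP and CoA. Inhibition was referenced to DMSO and no-enzyme wells; 4PL IC50.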

[2] = target: Delta-5-Desaturase (D5D) (Mus musculus (Mouse), UniProt Q920L1); assay: In vivo measurement of Delta-5-Desaturase inhibitory activity (plasma AA/DGLA ratio in DIO mice); settings: single oral dose 30 mg/kg, read-out: Average % D5D Inhibition expressed as Plasma Endogenous AA/DGLA Ratio
Method: In vivo Measurement of Delta-5-Desaturase Inhibitory Activity
Diet-induced obese (DIO; Jackson Laboratories strain #3800050) mice were used to screen for pharmacodynamic (PD) activity of test compounds. Generally, 14 to 24 week old DIO mice, were administered test compounds formulated in the vehicle of 2% hydroxypropyl methylcellulose (HPMC) and 1% Tween80. Animals were dosed on body weight by oral gavage with a single dose (30 mg/kg) for PD studies. Necropsy included plasma collection for PUFA analysis. 10 μl of plasma or standards diluted in surrogate matrix (65 g/l bovine serum albumin in Dulbecco's phosphate-buffered saline) were mixed with 10 μl of an internal standard (100 μM alpha-linolenic acid-d14 (ALA-d14, Cayman Chemical)) in a 96 well plate. 100 μl of 2N NAOH was added to the mixture for subsequent saponification at 65° C. for 1 hour. The mixture was then acidified with 50 μl of formic acid followed by two consecutive hexane extractions. Hexane (500 μl) was added and the mixture thoroughly mixed by vortexing, followed by centrifugation at 4,000 rpm for 15 min. The hexane phase was transferred to a new 1 ml 96 well plate and the remaining aqueous layer was extracted with hexane. The organic extracts were combined and the solvent was removed by placing the plate under nitrogen gas at 55° C. 250 μl of 90% methanol was added to the plate followed by vortexing for 2 minutes. 200 μl of the samples were transferred to a new 96 well polypropylene plate. The samples were analyzed on a LC-MS/MS for the following PUFAs: arachidonic acid (AA), dihomo-gamma-linolenic acid (DGLA), with ALA-d14 as the internal standard. Description of the LC-MS/MS method: 5 μl of sample was injected onto a Poroshell 120 EC-C18 3.0×50 mm, 1.9 μm id column. […] The PUFA peak areas were quantified by using the SCIEX Analyst software. […] The relative decrease of the AA/DGLA ratio of the test compound administered group relative to the vehicle administered group was calculated and used as an index for the degree of D5D inhibition.
The results presented in Table 27 were obtained using certain compounds described herein in the in vivo protocol described above.

Chain of Delta-5-Desaturase (D5D) (Homo sapiens (Human), UniProt O60427) (O60427 whole entry, species assumed): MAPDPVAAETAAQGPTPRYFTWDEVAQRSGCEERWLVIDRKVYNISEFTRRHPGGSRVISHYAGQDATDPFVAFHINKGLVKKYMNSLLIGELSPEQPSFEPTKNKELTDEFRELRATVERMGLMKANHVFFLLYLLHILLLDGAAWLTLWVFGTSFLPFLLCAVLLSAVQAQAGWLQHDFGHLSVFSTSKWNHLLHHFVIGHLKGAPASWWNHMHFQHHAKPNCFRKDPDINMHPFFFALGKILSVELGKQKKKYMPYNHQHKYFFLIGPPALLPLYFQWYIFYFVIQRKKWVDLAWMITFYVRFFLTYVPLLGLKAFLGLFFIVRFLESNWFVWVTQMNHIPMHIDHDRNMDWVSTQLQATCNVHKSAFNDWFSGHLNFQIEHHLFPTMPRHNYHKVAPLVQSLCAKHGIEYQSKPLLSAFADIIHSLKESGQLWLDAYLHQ
Chain of Delta-5-Desaturase (D5D) (Mus musculus (Mouse), UniProt Q920L1) (Q920L1 whole entry): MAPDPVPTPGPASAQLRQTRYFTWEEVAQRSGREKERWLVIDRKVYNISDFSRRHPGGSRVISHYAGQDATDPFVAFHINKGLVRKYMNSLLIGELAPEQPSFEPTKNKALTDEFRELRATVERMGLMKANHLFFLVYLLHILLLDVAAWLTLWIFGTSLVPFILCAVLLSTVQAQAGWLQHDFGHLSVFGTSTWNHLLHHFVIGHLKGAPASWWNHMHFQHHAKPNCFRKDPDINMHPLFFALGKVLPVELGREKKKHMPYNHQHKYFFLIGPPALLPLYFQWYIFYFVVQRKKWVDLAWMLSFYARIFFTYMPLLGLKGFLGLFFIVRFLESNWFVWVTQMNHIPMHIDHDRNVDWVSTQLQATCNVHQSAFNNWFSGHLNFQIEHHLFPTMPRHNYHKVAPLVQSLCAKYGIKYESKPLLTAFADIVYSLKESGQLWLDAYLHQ

IC50 [1]	inhibition in vivo at 30 mg/kg [2]	Structure (SMILES)
22 nM	60%	COc1ccn2c(=O)c(-c3ccc(OCC(F)(F)F)cc3C)c(C(F)(F)F)nc2c1 [Example 4-3, 8-methoxy-3-(2-methyl-4-(2,2,2-trifluoroethoxy)phenyl)-2-(trifluoromethyl)-4H-pyrido[1,2-a]pyrimidin-4-one]
14.8 nM	51%	Nc1ccn2c(=O)c(-c3cnn(CC(F)(F)C(F)(F)F)c3)c(C(F)(F)F)nc2c1 [Example 6-1, 8-Amino-3-(1-(2,2,3,3,3-pentafluoropropyl)-1H-pyrazol-4-yl)-2-(trifluoromethyl)-4H-pyrido[1,2-a]pyrimidin-4-one]
27 nM	60%	COc1ccn2c(=O)c(-c3ccc(OCC(F)(F)F)nc3)c(C(F)(F)F)nc2c1 [Example 7-4]
11.6 nM	79%	COc1ccn2c(=O)c(-c3ccc(O[C@@H](C)C#N)cc3)c(C(F)(F)F)nc2c1 [Example 8-9, (2S)-2-(4-(8-methoxy-4-oxo-2-(trifluoromethyl)-4H-pyrido[1,2-a]pyrimidin-3-yl)phenoxy)propanenitrile]
11.3 nM	67%	COc1ccn2c(=O)c(-c3ccc(OCC(C)(F)F)cc3)c(C(F)(F)F)nc2c1 [Example 9-2, 3-(4-(2,2-difluoropropoxy)phenyl)-8-methoxy-2-(trifluoromethyl)-4H-pyrido[1,2-a]pyrimidin-4-one]
43.8 nM	74%	O=c1ccn2c(=O)c(-c3ccc(OCC(F)(F)F)cc3)c(C(F)(F)F)[nH]c2c1 [Example 10-1, 3-(4-(2,2,2-Trifluoroethoxy)phenyl)-2-(trifluoromethyl)-4H-pyrido[1,2-a]pyrimidine-4,8(1H)-dione]
68.4 nM	52%	O=c1ccn2c(=O)c(-c3cnn(CC(F)(F)C(F)(F)F)c3)c(C(F)(F)F)nc2[nH]1 [Example 10-4, 7-(1-(2,2,3,3,3-pentafluoropropyl)-1H-pyrazol-4-yl)-8-(trifluoromethyl)-2H-pyrimido[1,2-a]pyrimidine-2,6(1H)-dione]
4 nM	79%	[2H]C([2H])([2H])Oc1ccn2c(=O)c(-c3ccc(OCC(F)(F)F)cc3)c(C(F)(F)F)nc2c1 [Example 11-2, 8-(methyloxy-d3)-3-(4-(2,2,2-trifluoroethoxy)phenyl)-2-(trifluoromethyl)-4H-pyrido[1,2-a]pyrimidin-4-one]
27.5 nM	37%	CCOc1ccn2c(=O)c(-c3ccc(OCC(F)(F)F)cc3)c(C(F)(F)F)nc2c1 [Example 11-3, 8-ethoxy-3-(4-(2,2,2-trifluoroethoxy)phenyl)-2-(trifluoromethyl)-4H-pyrido[1,2-a]pyrimidin-4-one]
23.9 nM	52%	O=c1c(-c2cnn(CC(F)(F)C(F)(F)F)c2)c(C(F)(F)F)nc2cc(CO)ccn12 [Example 13-1, 8-(Hydroxymethyl)-3-(1-(2,2,3,3,3-pentafluoropropyl)-1H-pyrazol-4-yl)-2-(trifluoromethyl)-4H-pyrido[1,2-a]pyrimidin-4-one]

Continued, compound first:

Structure (SMILES)	IC50 [1]	inhibition in vivo at 30 mg/kg [2]
COc1ccn2c(=O)c(-c3ccc(OCC(F)F)cc3F)c(C(F)(F)F)nc2c1 [Example 1-41, 3-(4-(2,2-difluoroethoxy)-2-fluorophenyl)-8-methoxy-2-(trifluoromethyl)-4H-pyrido[1,2-a]pyrimidin-4-one]	24.9 nM	63%
O=c1c(-c2ccc(OCC(F)(F)F)cc2)c(C(F)(F)F)nc2ccccn12 [Example 1-42, 3-(4-(2,2,2-trifluoroethoxy)phenyl)-2-(trifluoromethyl)-4H-pyrido[1,2-a]pyrimidin-4-one]	10.4 nM	64%
COc1ccn2c(=O)c(-c3ccc(OCC(F)(F)F)cc3)c(C(F)(F)F)nc2c1 [Example 1-44, 8-methoxy-3-(4-(2,2,2-trifluoroethoxy)phenyl)-2-(trifluoromethyl)-4H-pyrido[1,2-a]pyrimidin-4-one]	3.4 nM	76%
COc1ccn2c(=O)c(-c3ccc(OCC(F)(F)F)c(F)c3)c(C(F)(F)F)nc2c1 [Example 1-48, 3-(3-fluoro-4-(2,2,2-trifluoroethoxy)phenyl)-8-methoxy-(trifluoromethyl)-4H-pyrido[1,2-a]pyrimidin-4-one]	5.1 nM	66%
COc1ccn2c(=O)c(-c3ccc(OCC(F)(F)F)cc3)c(C(F)(F)F)nc2n1 [Example 1-50, 8-methoxy-3-(4-(2,2,2-trifluoroethoxy)phenyl)-2-(trifluoromethyl)-4H-pyrimido[1,2-a]pyrimidin-4-one]	16.8 nM	73%
COc1ccn2c(=O)c(-c3ccc(OCC(F)(F)F)cc3)c(CF)nc2c1 [Example 1-58, 2-(fluoromethyl)-8-methoxy-3-(4-(2,2,2-trifluoroethoxy)phenyl)-4H-pyrido[1,2-a]pyrimidin-4-one]	66.1 nM	74%
[2H]C([2H])([2H])Oc1ccn2c(=O)c(-c3ccc(OCC(F)(F)F)cc3)c(C(F)(F)F)nc2n1 [Example 1-59, 8-(methyloxy-d3)-3-(4-(2,2,2-trifluoroethoxy)phenyl)-2-(trifluoromethyl)-4H-pyrimido[1,2-a]pyrimidin-4-one]	14.5 nM	73%
COc1ccn2c(=O)c(-c3ccc(OCC(F)(F)F)cc3)c(C3CC3)nc2c1 [Example 1-62, 2-cyclopropyl-8-methoxy-3-(4-(2,2,2-trifluoroethoxy)phenyl)-4H-pyrido[1,2-a]pyrimidin-4-one]	10.9 nM	56%
COc1ccn2c(=O)c(-c3cnn(CCC(F)(F)F)c3)c(C(F)(F)F)nc2c1 [Example 1-69, 8-methoxy-2-(trifluoromethyl)-3-[1-(3,3,3-trifluoropropyl)pyrazol-4-yl]pyrido[1,2-a]pyrimidin-4-one]	15.2 nM	71%
COc1ccn2c(=O)c(-c3ccc(OC(F)(F)F)cc3)c(C(F)(F)F)nc2n1 [Example 1-72, 8-methoxy-3-(4-(trifluoromethoxy)phenyl)-2-(trifluoromethyl)-4H-pyrimido[1,2-a]pyrimidin-4-one]	57.2 nM	54%
COc1ccn2c(=O)c(-c3ccc(OCC(F)(F)F)c(F)c3)c(C(F)(F)F)nc2n1 [Example 1-73, 3-(3-fluoro-4-(2,2,2-trifluoroethoxy)phenyl)-8-methoxy-2-(trifluoromethyl)-4H-pyrimido[1,2-a]pyrimidin-4-one]	22 nM	72%
COc1ccn2c(=O)c(-c3cnn(CCCC(F)(F)F)c3)c(C(F)(F)F)nc2c1 [Example 1-75, 8-methoxy-3-(1-(4,4,4-trifluorobutyl)-1H-pyrazol-4-yl)-2-(trifluoromethyl)-4H-pyrido[1,2-a]pyrimidin-4-one]	29.6 nM	77%
CCc1nc2cc(OC)ccn2c(=O)c1-c1ccc(OCC(F)(F)F)cc1 [Example 1-77, 2-ethyl-8-methoxy-3-(4-(2,2,2-trifluoroethoxy)phenyl)-4H-pyrido[1,2-a]pyrimidin-4-one]	6.6 nM	75%
COc1ccn2c(=O)c(-c3ccc(OCC(F)(F)F)cc3)c(OC)nc2c1 [Example 1-80, 2,8-dimethoxy-3-(4-(2,2,2-trifluoroethoxy)phenyl)-4H-pyrido[1,2-a]pyrimidin-4-one]	12.5 nM	57%
CCOc1nc2cc(OC)ccn2c(=O)c1-c1ccc(OCC(F)(F)F)cc1 [Example 1-81, 2-ethoxy-8-methoxy-3-(4-(2,2,2-trifluoroethoxy)phenyl)-4H-pyrido[1,2-a]pyrimidin-4-one]	12.9 nM	44%
[2H]C([2H])([2H])Oc1ccn2c(=O)c(-c3cnn(CC(F)(F)C(F)(F)F)c3)c(C(F)(F)F)nc2n1 [Example 3-2, 8-(methyloxy-d3)-3-(1-(2,2,3,3,3-pentafluoropropyl)-1H-pyrazol-4-yl)-2-(trifluoromethyl)-4H-pyrimido[1,2-a]pyrimidin-4-one]	34.2 nM	67%
